Measurements published in ChEMBL document CHEMBL2057070, “Discovery of a novel azaindole class of antibacterial agents targeting the ATPase domains of DNA gyrase and Topoisomerase IV” (Bioorg Med Chem Lett, 2012).
pIC50: −log10 of the molar value. In brackets after ≈: the same amount, converted by molar mass.

Assays:
[1] = biological target: DNA gyrase subunit B (Staphylococcus aureus, UniProt P0A0K8); assay: Inhibition of Staphylococcus aureus DNA gyrase B expressed in Escherichia coli BL21(DE3) cells assessed ATP hydrolysis activity […] by malachite green reagent assay
[2] = test system: Streptococcus pneumoniae; assay: Antibacterial activity against Streptococcus pneumoniae ARC548; assay type: functional
[3] = test system: Staphylococcus aureus; assay: Antibacterial activity against methicillin-sensitive Staphylococcus aureus; assay type: functional
[4] = test system: Staphylococcus aureus; assay: Antibacterial activity against methicillin-, quinolone-resistant Staphylococcus aureus; assay type: functional
[5] = Lipophilicity, log D of the compound; details: octanol/water
[6] = Inhibition of Streptococcus pneumoniae DNA Topoisomerase 4 subunit ParE
[7] = Ratio of IC50 for Staphylococcus aureus DNA gyrase B to IC50 for Streptococcus pneumoniae Topoisomerase ParE

DNA gyrase subunit B, sequence (P0A0K8 whole entry): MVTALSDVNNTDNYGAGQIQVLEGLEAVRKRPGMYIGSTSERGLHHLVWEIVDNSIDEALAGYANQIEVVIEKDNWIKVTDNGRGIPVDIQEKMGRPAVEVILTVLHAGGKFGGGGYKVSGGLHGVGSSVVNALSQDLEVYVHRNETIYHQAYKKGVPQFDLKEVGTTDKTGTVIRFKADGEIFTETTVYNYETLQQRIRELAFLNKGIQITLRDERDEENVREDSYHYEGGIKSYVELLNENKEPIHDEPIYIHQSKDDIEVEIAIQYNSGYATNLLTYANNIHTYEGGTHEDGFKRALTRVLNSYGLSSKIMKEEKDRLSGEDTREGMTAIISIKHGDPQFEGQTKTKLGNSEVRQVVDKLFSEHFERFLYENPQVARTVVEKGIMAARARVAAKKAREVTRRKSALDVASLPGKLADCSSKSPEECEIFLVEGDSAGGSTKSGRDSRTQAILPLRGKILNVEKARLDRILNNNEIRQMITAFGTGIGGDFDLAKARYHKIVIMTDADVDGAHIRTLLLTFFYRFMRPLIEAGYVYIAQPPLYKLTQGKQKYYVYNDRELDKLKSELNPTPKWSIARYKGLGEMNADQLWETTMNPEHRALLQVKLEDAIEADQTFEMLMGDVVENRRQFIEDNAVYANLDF

In the case of CCNC(=O)c1cc2c(-n3ccc(C(F)(F)F)n3)c(-c3cc(-c4n[nH]c(=O)o4)cnc3OC)cnc2[nH]1, the pIC50 [1] was 8.70, the MIC [2] was < 0.02 µM and the MIC [3] was 0.098 µM (≈ 0.0504 µg/mL). For the same molecule, the MIC [4] was 0.2 µM (≈ 0.103 µg/mL), the logD [5] was 2.91 and the pIC50 [6] was 8.52.
For CCNC(=O)c1cc2c(-n3ccc(C(F)(F)F)n3)c(-c3cncc(C(=O)NC)c3)cnc2[nH]1, the pIC50 [1] was 7.96, the MIC [2] was 0.098 µM (≈ 0.0448 µg/mL) and the MIC [3] was 6.25 µM (≈ 2.86 µg/mL). For the same molecule, the MIC [4] was 12.5 µM (≈ 5.72 µg/mL), the logD [5] was 2.21 and the pIC50 [6] was 7.80.
In the case of CCCNC(=O)c1cc2c(-n3ccc(C(F)(F)F)n3)c(-c3cncc(C(=O)O)c3)cnc2[nH]1, the pIC50 [1] was 7.24, the MIC [2] was > 25 µM and the MIC [3] was > 25 µM. It also gave a logD [5] of -0.79 and a pIC50 [6] of 7.35.
With CC(C)NC(=O)c1cc2c(-n3ccc(C(F)(F)F)n3)c(-c3cncc(C(=O)O)c3)cnc2[nH]1 the pIC50 [1] was 6.83, the MIC [2] was > 25 µM and the MIC [3] was > 25 µM. The logD [5] was -0.62 and the pIC50 [6] was 7.36.
In the case of C[C@H]1COc2c(N3CCN(C)CC3)c(F)cc3c(=O)c(C(=O)O)cn1c23 [LEVOFLOXACIN], the MIC [2] was 3.13 µM (≈ 1.13 µg/mL), the MIC [3] was 0.78 µM (≈ 0.282 µg/mL) and the MIC [4] was > 25 µM.
For CCNC(=O)c1cc2c(-n3ccc(C(F)(F)F)n3)c(-c3cncc(-c4n[nH]c(=O)o4)c3)cnc2[nH]1, the pIC50 [1] was > 9.00, the MIC [2] was < 0.03 µM and the MIC [3] was 0.4 µM (≈ 0.194 µg/mL). For the same molecule, the MIC [4] was 1.1 µM (≈ 0.533 µg/mL), the logD [5] was 1.65 and the pIC50 [6] was 8.52.
For O=C(O)c1cncc(-c2cnc3[nH]c(C(=O)NC4CC4)cc3c2-n2ccc(C(F)(F)F)n2)c1, the pIC50 [1] was 7.41, the Ratio IC50 [7] was > 3 and the MIC [2] was 25 µM (≈ 11.4 µg/mL). The MIC [3] was > 25 µM, the logD [5] was -0.98 and the pIC50 [6] was 8.22.
With CCNC(=O)c1cc2c(-n3ccc(C(F)(F)F)n3)c(-c3cncc(C(=O)O)c3)cnc2[nH]1 the MIC [2] was 6.25 µM (≈ 2.78 µg/mL), the MIC [3] was > 25 µM and the logD [5] was -0.99.
In the case of CCNC(=O)c1cc2c(-n3ccc(C(F)(F)F)n3)c(-c3cnc(OC)c(-c4n[nH]c(=O)o4)c3)cnc2[nH]1, the pIC50 [1] was 8.40, the MIC [2] was < 0.03 µM and the MIC [3] was 0.78 µM (≈ 0.401 µg/mL). It also gave an MIC [4] of 1.56 µM (≈ 0.803 µg/mL) and a pIC50 [6] of 8.52.
With CCNC(=O)c1cc2c(-n3ccc(C(F)(F)F)n3)c(-c3cncc(C(N)=O)c3)cnc2[nH]1 the MIC [2] was 0.2 µM (≈ 0.0887 µg/mL), the MIC [3] was 25 µM (≈ 11.1 µg/mL) and the MIC [4] was > 25 µM.
With CCNC(=O)c1cc2c(-n3ccc(C(F)(F)F)n3)c(-c3cncc(C#N)c3)cnc2[nH]1 the pIC50 [1] was 7.64, the MIC [2] was 0.2 µM (≈ 0.0851 µg/mL) and the MIC [3] was 3.13 µM (≈ 1.33 µg/mL). It also gave an MIC [4] of 1.56 µM (≈ 0.664 µg/mL), a logD [5] of 2.62 and a pIC50 [6] of 8.00.
With CO[C@@H]1[C@@H](OC(N)=O)[C@@H](O)[C@H](Oc2ccc3c(O)c(NC(=O)c4ccc(O)c(CC=C(C)C)c4)c(=O)oc3c2C)OC1(C)C [NOVOBIOCIN] the MIC [2] was 0.78 µM (≈ 0.478 µg/mL), the MIC [3] was 0.39 µM (≈ 0.239 µg/mL) and the MIC [4] was 0.39 µM (≈ 0.239 µg/mL).
In the case of CCNC(=O)c1cc2c(-n3nc(C(F)(F)F)cc3C)c(-c3cncc(C(=O)O)c3)cnc2[nH]1, the pIC50 [1] was 6.88, the MIC [2] was 12.5 µM (≈ 5.73 µg/mL) and the MIC [3] was > 25 µM. For the same molecule, the logD [5] was -0.88 and the pIC50 [6] was 7.19.
For O=C(O)/C=C/c1cccc(-c2cnc3[nH]ccc3c2)c1, the MIC [2] was 200 µM (≈ 52.9 µg/mL), the MIC [3] was > 200 µM and the logD [5] was 0.58.
